Laboratory results: US20240425524A1, “SPIROTRICYCLE RIPK1 INHIBITORS AND METHODS OF USES THEREOF” (Merck Sharp & Dohme LLC, priority 2021, published 2024)

Each compound was assayed against RIPK1 (Homo sapiens (Human), UniProt Q13546) (assay: RIPK1-ADP-Glo Enzymatic Assay). Conditions: recombinant GST-RIPK1 kinase domain (residues 1-327), 25 nM, ten-point titration, 30 minutes pre-incubation.
Format: biochemical
Outline: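 GST-RIPK1 kinase domain (residues 1-327, Sf21-expressed; 25 nM final) was pre-incubated 30 min at ambient temperature with compound (10-point 1:3 series from 100000 nM, 1% DMSO) in HEPES pH 7.3 buffer with 20 mM MgCl2. The reaction was started with 900 μM ATP (addition solution) and 3 μM dephosphorylated MBP and ran 150 min. Read-out was ADP-Glo luminescence, with EC50 from a four-parameter fit.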

Chain of RIPK1 (Q13546 1-327): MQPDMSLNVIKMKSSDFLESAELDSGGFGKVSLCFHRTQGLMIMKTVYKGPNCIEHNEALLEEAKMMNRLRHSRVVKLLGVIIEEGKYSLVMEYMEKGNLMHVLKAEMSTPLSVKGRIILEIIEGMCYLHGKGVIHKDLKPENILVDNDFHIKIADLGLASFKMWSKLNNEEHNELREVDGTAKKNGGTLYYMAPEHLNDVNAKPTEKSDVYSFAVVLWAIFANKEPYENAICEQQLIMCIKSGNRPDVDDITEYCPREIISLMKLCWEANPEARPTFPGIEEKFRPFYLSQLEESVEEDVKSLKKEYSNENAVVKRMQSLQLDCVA

Which EC50 does the source give for Cc1cc(N2CCC3(CC2)CN2CC[C@@H](c4cc(F)cc(F)c4)N2C3=O)nc(C(F)(F)F)n1 [Example 1.44, (S)-7′-(3,5-difluorophenyl)-1-(6-methyl-2-(trifluoromethyl)pyrimidin-4-yl)dihydro-1′H,3′H,5′H-spiro[piperidine-4,2′-pyrazolo[1,2-a]pyrazol]-1′-one] here?
The EC50 was 274 nM.

For O=C1N2[C@H](c3cc(F)cc(F)c3)CCN2CC12CCN(c1ccc(C(F)(F)F)cn1)CC2 [Example 1.39, (S)-7′-(3,5-difluorophenyl)-1-(5-(trifluoromethyl)pyridin-2-yl)dihydro-1′H,3′H,5′H-spiro[piperidine-4,2′-pyrazolo[1,2-a]pyrazol]-1′-one], which EC50 is on record?
The EC50 was 77 nM.

With O=C1N2[C@H](c3cc(F)cc(F)c3)CCN2CC12CCN(c1nc(Cl)nc3[nH]ncc13)CC2 [Example 1.53, (S)-1-(6-chloro-1H-pyrazolo[3,4-d]pyrimidin-4-yl)-7′-(3,5-difluorophenyl)dihydro-1′H,3′H,5′H-spiro[piperidine-4,2′-pyrazolo[1,2-a]pyrazol]-1′-one] as the compound, how does the EC50 read?
The EC50 was 857 nM.

Which EC50 does the source give for O=C1N2[C@H](c3cc(F)cc(F)c3)CCN2CC12CCN(c1cccc(Cl)n1)CC2 [Example 1.5, (7′S)-1-(6-chloropyridin-2-yl)-7′-(3,5-difluorophenyl)dihydro-1′H,3′H,5′H-spiro[piperidine-4,2′-pyrazolo[1,2-a]pyrazol]-1′-one] here?
Its EC50 is 24 nM.

For Cc1ccc(C(=O)N2CCC3(CC2)CN2CC[C@@H](c4cc(F)cc(F)c4)N2C3=O)cc1 [Example 4.3, (S)-7′-(3,5-difluorophenyl)-1-(4-methylbenzoyl)dihydro-1′H,3′H,5′H-spiro[piperidine-4,2′-pyrazolo[1,2-a]pyrazol]-l′-one], which EC50 is on record?
The EC50 was 38 nM.

Cc1nc(N2CCC3(CC2)CN2CC[C@@H](c4cc(F)cc(F)c4)N2C3=O)ccc1F [Example 11.2, (S)-7′-(3,5-difluorophenyl)-1-(5-fluoro-6-methylpyridin-2-yl)dihydro-1′H,3′H,5′H-spiro[piperidine-4,2′-pyrazolo[1,2-a]pyrazol]-l′-one] was tested. Which EC50 did it give?
The EC50 was 43 nM.

For O=C1N2[C@H](c3cc(F)cc(F)c3)CCN2CC12CCN(c1nccn3nccc13)CC2 [Example 2.11, (S)-7′-(3,5-difluorophenyl)-1-(pyrazolo[1,5-a]pyrazin-4-y1)dihydro-l′H,3′H,5′H-spiro[piperidine-4,2′-pyrazolo[1,2-a]pyrazol]-1′-one], which EC50 is on record?
The EC50 was 34 nM.

For Cc1c(F)cccc1C(=O)N1CCC2(CC1)CN1CC[C@@H](c3cc(F)cc(F)c3)N1C2=O [Example 4.8, (S)-7′-(3,5-difluorophenyl)-1-(3-fluoro-2-methylbenzoyl)dihydro-1′H,3′H,5′H-spiro[piperidine-4,2′-pyrazolo[1,2-a]pyrazol]-l′-one], which EC50 is on record?
Its EC50 is 158 nM.

For O=C1N2[C@H](c3cc(F)cc(F)c3)CCN2CC12CCN(c1noc3ccccc13)CC2 [Example 2.6, (S)-1-(benzo[d]isoxazol-3-yl)-7′-(3,5-difluorophenyl)dihydro-1′H,3′H,5′H-spiro[piperidine-4,2′-pyrazolo[1,2-a]pyrazol]-1′-one], which EC50 is on record?
Its EC50 is 145 nM.

N#Cc1ccnc(N2CCC3(CC2)CN2CC[C@@H](c4cc(F)cc(F)c4)N2C3=O)n1 [Example 1.75, (S)-2-(7′-(3,5-difluorophenyl)-1′-oxodihydro-1′H,3′H,5′H-spiro[piperidine-4,2′-pyrazolo[1,2-a]pyrazol]-1-yl)pyrimidine-4-carbonitrile] was tested. Which EC50 did it give?
Its EC50 is 49 nM.

With CC(C)c1nc(Cl)cc(N2CCC3(CC2)CN2CC[C@@H](c4cc(F)cc(F)c4)N2C3=O)n1 [Example 1.47, (S)-1-(6-chloro-2-isopropylpyrimidin-4-yl)-7′-(3,5-difluorophenyl)dihydro-1′H,3′H,5′H-spiro[piperidine-4,2′-pyrazolo[1,2-a]pyrazol]-1′-one] as the compound, how does the EC50 read?
Its EC50 is 153 nM.

Cn1cc(-c2cc(N3CCC4(CC3)CN3CC[C@@H](c5cc(F)cc(F)c5)N3C4=O)ncn2)cn1 [Example 1.93, (S)-7′-(3,5-difluorophenyl)-1-(6-(1-methyl-1H-pyrazol-4-yl)pyrimidin-4-yl)dihydro-1′H,3′H,5′H-spiro[piperidine-4,2′-pyrazolo[1,2-a]pyrazol]-1′-one] was tested. Which EC50 did it give?
The EC50 was 17 nM.

With CC(=O)c1cnc(N2CCC3(CC2)CN2CC[C@@H](c4cc(F)cc(F)c4)N2C3=O)cc1Cl [Example 1.62, (S)-1-(5-acetyl-4-chloropyridin-2-yl)-7′-(3,5-difluorophenyl)dihydro-1′H,3′H,5′H-spiro[piperidine-4,2′-pyrazolo[1,2-a]pyrazol]-1′-one] as the compound, how does the EC50 read?
The EC50 was 20 nM.

Cc1ccc(N2CCC3(CC2)CN2CC[C@@H](c4cc(F)cc(F)c4)N2C3=O)n2nccc12 [Example 9.1, (S)-7′-(3,5-difluorophenyl)-1-(4-methylpyrazolo[1,5-α]pyridin-7-yl) dihydro-1′H,3′H,5′H-spiro [piperidine-4,2′-pyrazolo[1,2-α]pyrazol]-1′-one] was tested. Which EC50 did it give?
Its EC50 is 17 nM.

With CCc1nccc(N2CCC3(CC2)CN2CC[C@@H](c4cc(F)cc(F)c4)N2C3=O)n1 [Example 1.72, (S)-7′-(3,5-difluorophenyl)-1-(2-ethylpyrimidin-4-yl)dihydro-1′H,3′H,5′H-spiro[piperidine-4,2′-pyrazolo[1,2-a]pyrazol]-1′-one] as the compound, how does the EC50 read?
The EC50 was 208 nM.

Which EC50 does the source give for O=C(c1cnccn1)N1CCC2(CC1)CN1CC[C@@H](c3cc(F)cc(F)c3)N1C2=O [Example 4.1, (S)-7′-(3,5-difluorophenyl)-1-(pyrazine-2-carbonyl) dihydro-1′H,3′H,5′H-spiro [piperidine-4,2′-pyrazolo[1,2-a]pyrazol]-1′-one] here?
Its EC50 is 50 nM.

With O=C1N2[C@H](c3cc(F)cc(F)c3)CCN2CC12CCN(c1cc(F)ccn1)CC2 [Example 1.3, (7′S)-7′-(3,5-difluorophenyl)-1-(4-fluoropyridin-2-yl)dihydro-1′H,3′H,5′H-spiro[piperidine-4,2′-pyrazolo[1,2-a]pyrazol]-1′-one] as the compound, how does the EC50 read?
The EC50 was 19 nM.

How did the EC50 turn out when O=C(c1cc(F)cc(Cl)c1)N1CCC2(CC1)CN1CC[C@@H](c3cc(F)cc(F)c3)N1C2=O [Example 4.19, (S)-1-(3-chloro-5-fluorobenzoyl)-7′-(3,5-difluorophenyl) dihydro-1′H,3′H,5′H-spiro[piperidine-4,2′-pyrazolo[1,2-a]pyrazol]-l′-one] was run?
The EC50 was 18 nM.

With O=C1N2[C@H](c3cc(F)cc(F)c3)CCN2CC12CCN(c1ccnc3ccnn13)CC2 [Example 2.10, (S)-7′-(3,5-difluorophenyl)-1-(pyrazolo[1,5-a]pyrimidin-7-yl)dihydro-1′H,3′H,5′H-spiro[piperidine-4,2′-pyrazolo[1,2-a]pyrazol]-1′-one] as the compound, how does the EC50 read?
The EC50 was 33 nM.

With COc1cc(F)cc(C(=O)N2CCC3(CC2)CN2CC[C@@H](c4cc(F)cc(F)c4)N2C3=O)c1 [Example 4.27, (S)-7′-(3,5-difluorophenyl)-1-(3-fluoro-5-methoxybenzoyl) dihydro-l′H,3′H,5′H-spiro[piperidine-4,2′-pyrazolo[1,2-a]pyrazol]-l′-one] as the compound, how does the EC50 read?
Its EC50 is 26 nM.

For O=C1N2[C@H](c3cc(F)cc(F)c3)CCN2CC12CCN(c1cccc(F)c1)CC2 [Example 10.1, (S)-7′-(3,5-difluorophenyl)-1-(3-fluorophenyl) dihydro-1′H,3′H,5′H-spiro [piperidine-4,2′-pyrazolo[1,2-α]pyrazol]-1′-one], which EC50 is on record?
Its EC50 is 47 nM.

For N#Cc1ccc(N2CCC3(CC2)CN2CC[C@@H](c4cc(F)cc(F)c4)N2C3=O)nn1 [Example 1.37, (S)-6-(7′-(3,5-difluorophenyl)-1′-oxodihydro-1′H,3′H,5′H-spiro[piperidine-4,2′-pyrazolo[1,2-a]pyrazol]-1-yl)pyridazine-3-carbonitrile], which EC50 is on record?
The EC50 was 473 nM.

Which EC50 does the source give for O=C1N2[C@H](c3cc(F)cc(F)c3)CCN2CC12CCN(c1ccc(Br)c3ccnn13)CC2 [Example 2.1] here?
The EC50 was 7.5 nM.

O=C(c1cccnc1)N1CCC2(CC1)CN1CC[C@@H](c3cc(F)cc(F)c3)N1C2=O [Example 4.4, (S)-7′-(3,5-difluorophenyl)-1-nicotinoyldihydro-1′H,3′H,5′H-spiro[piperidine-4,2′-pyrazolo[1,2-a]pyrazol]-l′-one] was tested. Which EC50 did it give?
Its EC50 is 209 nM.
